Data taken from US20160106770A1, “EPIGENETIC MECHANISMS OF ANTI-FIBROTIC ACTION FOR THE LIVER” (University of Southern California, priority 2011, published 2016).

Columns and labels:
[1] = test system: Pparγ gene; assay: Chromatin immunoprecipitation (ChIP) at the Pparγ gene in HSCs; type: cell-based, rat; settings: day 7 HSCs, RA or BC
Protocol: For assessing Pparγ epigenetic regulation, carrier ChIP was performed using Raji cells as the source of carrier chromatin. For native ChIP, 20 μg of HSC chromatin was mixed with 80 μg of Raji cell chromatin. For cross-link ChIP, Raji cells (1.4×10^7 cells) were mixed to HSCs (0.2×10^6 cells) and fixed with 1% formaldehyde on the rotating platform for 5-10 minutes at room temperature followed by addition of glycine to a final concentration of 0.125M. After lysis of the cells with SDS buffer (1% SDS, 10 mM EDTA, 50 mM Tris-HCl pH8.1) with protease inhibitors, the lysates were sonicated and snap frozen in aliquots. For chromatin IP, diluted samples were first pre-cleared using protein G-agarose beads and then incubated with antibody against […], MeCP2, H3K27me2, H3K4me2 and […] (Abcam) at 1 μg/μl at 4° C. for overnight followed by precipitation with protein G agarose beads. After elution of immunoprecipitated complex, crosslinking was reversed with 5N NaCl and proteins digested with protease K. Extracted chromatin was subjected to real-time PCR using the primers flanking a segment within Pparγ promoter or exon as previously described in Mann J et al., MeCP2 controls an epigenetic pathway that promotes myofibroblast transdifferentiation and fibrosis, Gastroenterology, 2010 Feb; 138(2):705-14, 714, which is incorporated herein by reference as though fully set forth. Ct values of the samples with non-immune IgG were subtracted and compared to their respective input Ct values.

[2] = test system: rat HSCs; assay: Immunoblot analysis of cultured HSCs; type: cell-based; settings: day 7 HSCs, RA or BC
Protocol: Whole cell extracts were prepared as previously described in Hazra S. et al., Peroxisome proliferator-activated receptor gamma induces a phenotypic switch from activated to quiescent hepatic stellate cells, J Biol Chem, 2004 Mar 19; 279 (12):11392-11401, which is incorporated by reference herein as though fully set forth. Equal amounts of the extract (20 μg) were separated by 8-15% SDS-PAGE and the proteins were transferred to nitrocellulose membranes (Bio-Rad, Hercules, Calif.). MeCP2, type I collagen, and β-actin were detected by incubating with rabbit polyclonal anti-MeCP2 (1:1000) (Abcam), antitype I collagen (1:4000), and anti-β-actin (1:5000) primary antibodies (Santa Cruz Biotechnology) in TBS (100 mM Tris-HCl, 1.5 M NaCl, pH 7.4) with 5% nonfat milk overnightat 4° C. followed by incubation with horseradish peroxidase conjugated goat anti-rabbit secondary antibodies (1:4000) (Sigma) at room temperature for 2 hr. The antigen-antibody complexes' chemiluminescence was detected by using the ECL detection kit (Pierce).

[3] = test system: BDL-induced cholestatic liver fibrosis in mice; assay: Bile duct ligation (BDL) cholestatic liver fibrosis model; type: in vivo
Protocol: Male C57B1/6 and collagen α1(I) promoter-GFP (Coll-GFP) mice were subjected to ligation and scission of the common bile duct (BDL) to induce cholestatic liver fibrosis for HSC isolation or testing the therapeutic efficacy of RA. For the latter, after one week following BDL, RA was intraperitoneally injected daily at the dose of 0.1 mg/25 g body weight until the animals were sacrificed one week later for Sirius-red staining morphometry, immunohistochemistry, and qPCR analysis of the livers as described below.
After 3 days of the extract treatment, the cells were washed with cold phosphate-buffered saline (PBS) and fixed in 4% paraformaldehyde (PF). To stain α-smooth muscle actin (SMA), a fluorescein isothiocyanate (FITC) conjugated antibody (1:200, Sigma, Saint Louis, Mo.) was added as a primary antibody at 4° C. for overnight. After washing and blocking with 5% nonfat milk, fluorescence images were viewed by a Nikon microscope as described above. For intracellular lipid staining, HSCs treated with the extract for 3 days were cultured with retinol (5 μM) and palmitic acid (100 μM) (Sigma, Saint Louis, Mo.) for 48 hr, and fixed with 10% formalin in PBS. Oil Red O (0.5% w/v in isopropanol) was diluted with 67% volume of water, filtered, and added to the fixed HSCs. Apoptosis was detected in cultured HSCs and liver sections from BDL mice using a Cell Death Detection kit from Roche. For liver section immunostaining, liver tissues were fixed with 4% PF and embedded in freezing medium. Cryosections (7 μm) were washed with PBS, digested with 20 μg/ml proteinase K (Invitrogen, Carlsbad, Calif.), and blocked with 5% goat serum and 0.2% bovine serum albumin. The sections were then incubated with mouse anti-SMA antibody conjugated with FITC (Sigma, 1:400) and rabbit anti-desmin antibody (Thermo Scientific, Rockford, Ill., 1:400). After washing, the sections were incubated with goat anti-rabbit antibody conjugated with AlexaFluor 568 (Invitrogen, 1:400) and mouse anti-FITC antibody conjugated with DyLight 488 (Jackson ImmunoResearch, West Grove, Pa., 1:400). The sections were mounted with 4,6-diamidino-2-phenylindole (DAPI) (Invitrogen) and fluorescence images were visualized under a microscope. To quantify the percentage and density of HSCs in the liver after BDL with or without treatment of RA, 6 images were randomly captured using a 10× objective lens in 3 different sections and SMA+ and desmin+HSCs in the parenchyma were counted.
Total RNA was extracted from the cells using TRIzol reagent (Invitrogen) or RNeasy Mini kit (Qiagen). One microgram of RNA was reverse transcribed to cDNA by using SuperScript III First-Strand Synthesis System (Invitrogen) and amplified by 40 cycles using primers listed below and the SYBR Green PCR Master mix reagent (AB Applied Biosystem). Each threshold cycle (Ct) value was first normalized to the 36B4 Ct value of a sample and subsequently compared between the treatment and control samples.

[4] = test system: TOPFLASH promoter activity in rat primary HSCs; assay: TOPFLASH TCF promoter-luciferase reporter, transient transfection by electroporation; type: cell-based; settings: day 7 primary HSCs
Protocol: TCF promoter-luciferase construct TOPFLASH (a gift from Dr. Randall Moon, Univ. of Washington, Seattle, Wash.) or a KB luciferase construct was used for transient transfection in the rat primary HSCs by electroporation using the NeonTM Transfection System (Invitrogen). The Renilla pRL-TK construct was used for standardization for transfection efficiency. Cell lysates were analyzed by the dual luciferase assay (Promega) on a luminometer. To assess the activity of IKK, IKK was immunoprecipitated by IKKα antibody and protein G-Sepharose, and the assay was performed at 30° C. for 1 hr in buffer containing 20 mM Tris HCl, pH 7.5, 20 mM MgCl2, 2 mM dithiothreitol, 20 μM ATP, 2 μg GST-IκBα, and [γ-32P]ATP. The reaction was stopped by addition of […] buffer and was resolved by 10% SDS-PAGE followed by a transfer onto a membrane for imaging.

[5] = test system: culture-activated rat primary HSCs; assay: Real time quantitative PCR of cultured HSCs; type: cell-based; settings: for expression of Necdin / expression of Wnt3a / expression of Wnt10b: 270 μM, day 7 HSCs vs vehicle; for EZH2 expression: day 7 HSCs, RA or BC
Excerpt: HSCs were isolated from normal male Wistar rats, C57B1/6 and Coll-GFP mice by in situ digestion of the liver and arabinogalactan gradient ultracentrifugation by the Non-Parenchymal Liver Cell Core of the Southern California Research Center for ALPD and Cirrhosis as described previously in Cheng J H et al,. Wnt antagonism inhibits hepatic stellate cell activation and liver fibrosis, Am J Physiol Gastrointest Liver Physiol, 2007 Nov 15; and Zhu N L et al., The […] pathway causes epigenetic peroxisome proliferator-activated receptor gamma repression in hepatic stellate cells, J Biol Chem, 2010 Oct 1; 285(40):30463-30471, both of which are incorporated by reference herein in their entirety as though fully set forth. The purity of the cells, as determined by phase contrast microscopy and ultraviolet-excited fluorescence microscopy, exceeded 96%, and the viability as determined by trypan blue exclusion exceeded 94%. In vitro activation of HSCs was achieved by culturing rat HSCs in Dulbecco's modified Eagle's medium (DMEM) with 1.0 g/liter glucose, 10% fetal bovine serum and 1% antibiotics on plastic dish for 3, 5 or 7 days. Culture-activated rat primary HSCs were treated with the YGW or starch (control) aqueous extract at 25% (v/v). To obtain the extract, the YGW or starch powder (provided by S.P. Pharmaceutics Inc.) was suspended in DMEM at the concentration of 35 mg/ml, mixed thoroughly with a vortex for 5 min, and centrifuged at ×150 g for 30 min to collect the supernatant. This supernatant was designated as 100% extract and used after filter-sterilization. RA and BC (Sigma Chemical Co) were dissolved in DMSO and tested at the concentration of […]. Total RNA was extracted from the cells using TRIzol reagent (Invitrogen) or RNeasy Mini kit (Qiagen). One microgram of RNA was reverse transcribed to cDNA by using SuperScript III First-Strand Synthesis System (Invitrogen) and amplified by 40 cycles using primers listed below and the SYBR Green PCR Master mix reagent (AB Applied Biosystem). Each threshold cycle (Ct) value was first normalized to the 36B4 Ct value of a sample and subsequently compared between the treatment and control samples.

[6] = test system: culture-activated rat primary HSCs; assay: Morphologic reversal of culture-activated HSCs (phase contrast / UV autofluorescence microscopy); type: cell-based; settings: concentration of 135 and 270 μM
Protocol: The purity of the cells, as determined by phase contrast microscopy and ultraviolet-excited fluorescence microscopy, exceeded 96%, and the viability as determined by trypan blue exclusion exceeded 94%. In vitro activation of HSCs was achieved by culturing rat HSCs in Dulbecco's modified Eagle's medium (DMEM) with 1.0 g/liter glucose, 10% fetal bovine serum and 1% antibiotics on plastic dish for 3, 5 or 7 days. Culture-activated rat primary HSCs were treated with the YGW or starch (control) aqueous extract at 25% (v/v). To obtain the extract, the YGW or starch powder (provided by S.P. Pharmaceutics Inc.) was suspended in DMEM at the concentration of 35 mg/ml, mixed thoroughly with a vortex for 5 min, and centrifuged at ×150 g for 30 min to collect the supernatant. This supernatant was designated as 100% extract and used after filter-sterilization. RA and BC (Sigma Chemical Co) were dissolved in DMSO and tested at the concentration of 67.5˜270 μM.

[7] = RA ip daily 0.1 mg/25 g, immunohistochemistry SMA/Desmin, vs vehicle
[8] = RA ip daily 0.1 mg/25 g, vs vehicle

Row | SMILES | H3K27me2 at the Pparγ exon [1] | MeCP2 enrichment in the Pparγ promoter [1] | MeCP2 protein level [2] | TUNEL+HSCs or hepatocytes in the liver parenchyma ([3]; RA ip daily 0.1 mg/25 g) | density of Desmin+HSCs (increased by BDL) ([3]; RA ip daily 0.1 mg/25 g) | liver to body weight percentage ([3]; RA ip daily 0.1 mg/25 g body weight during second week of BDL) | plasma ALT levels ([3]; RA ip daily 0.1 mg/25 g body weight during second week, p=0.29 vs vehicle) | liver fibrosis by digital morphometric analysis of Sirius red-stained collagen fibers ([3]; RA ip daily 0.1 mg/25 g body weight during second week, vs vehicle) | reduction of the percentage of SMA+HSCs [3, 7] [%] | reduction of the percentage of SMA+MFs [3, 7] [%] | hepatic mRNA level of SMA [3, 8] | hepatic mRNA level of α1(I) procollagen [3, 8] | TOPFLASH activity [4] | expression of Necdin [5] | expression of Wnt3a [5] | expression of Wnt10b [5] | EZH2 expression [5] | morphologic reversal of activated HSCs with increased UV-excited autofluorescence [6]
1 | O=C(/C=C/c1ccc(O)c(O)c1)O[C@H](Cc1ccc(O)c(O)c1)C(=O)O [RA, rosmarinic acid] | reduce | reduce | reduce | No TUNEL+HSCs or hepatocytes are detected | no effect | 6.8 ± 0.7 | 157+71 | significant attenuation | 75 | 40 | significantly reduced | significantly reduced | suppress | reduced | suppress | suppress | reduce | morphologically reverse activated HSCs to quiescent cells
2 | O=C(O)[C@H]1O[C@@H](Oc2cc3oc(-c4ccccc4)cc(=O)c3c(O)c2O)[C@H](O)[C@@H](O)[C@@H]1O [BC, baicalin] | reduce | reduce | reduce | – | – | – | – | – | – | – | – | – | suppress | reduced | suppress | suppress | reduce | morphologically reverse activated HSCs to quiescent cells
